Assay [1] has as its system rat air pouch model of crystal-induced arthropathy (MSU). Kind of assay: Rat air pouch model, Example 8 (Compound 3 in combination with colchicine). The format is in vivo. The procedure:
Sodium hydroxide (40 g, Fisher Scientific) was dissolved in de-ionized water (100 mL, dH2O) to provide a 10N solution. Uric acid (16 g, Sigma) was added to de-ionized water (3400 mL) containing sodium hydroxide solution (11.8 mL, 10N) and heated to 60° C. with constant stirring. […] The resulting clear solution was cooled to 4-8° C., resulting in the formation of crystals, which were isolated by filtration, washed three times with de-ionized wa[…]) and dried at 37° C. The dried mono sodium urate crystals were sifted into an air-tight container for storage. […] Methylcellulose (0.4 g, Sigma) was dissolved in de-ionized water (100 mL) to provide a 0.4% solution used as vehicle. […] Test compounds were suspended in vehicle to provide the desired concentrations, and diluted accordingly. […] Male Sprague-Dawley rats (Charles River Laboratories, 160-180 g) were received, individually examined and housed in cages of five rats each. The animals were in apparent good health with no clinical signs of disease or distress. The rats were placed in quarantine with daily inspections, ear notched for identification purposes and shaved at the nape of the neck. The rats were anesthetized (isoflurane), and the nape of the neck was cleansed with 70% isopropanol (Butler Animal Health Supply) followed by povidone-iodine solution (Ricca Chemical Co.). Sterile air (30 mL, 0.2 μm, Millipore) was injected subcutaneously using a 23 G×11⁄2 inch needle fixed to a 30 mL syringe. The rats were returned to routine housing with no adverse reactions observed. The rats were anesthetized (isoflurane), and the nape of the neck was cleansed with 70% isopropanol (Butler Animal Health Supply) followed by povidone-iodine solution (Ricca Chemical Co.). Sterile air (15 mL, 0.11 μm, Millipore) was injected subcutaneously using a 23 G×11⁄2 inch needle fixed to a 20 mL syringe. The rats were returned to routine housing with no adverse reactions observed. The rats were weighed and sorted into treatment groups based on average body weight. As appropriate, the rats were dosed orally with test compound or vehicle (saline alone). […] Thirty minutes after SC injection or two hours after PO dosing, MSU (15 mL) was injected into the air pouch using an 18 G×2 inch needle fitted to a 20 mL syringe. Control group was injected with 15 mL sterile saline (vehicle). The injection sites were closed (collodion, Macron) and the rats returned to their cages with no adverse effects observed. Four hours after MSU/saline injection, the rats were anesthetized and heparinized saline (5 mL, 10 U/mL) was injected into the air pouch. […] An aliquot of the exudate was transferred to green Eppendorf tubes for total white blood cell (WBC) measurement. After allowing the MSU crystals to settle out for ten minutes, an aliquot of the exudate was transferred to heparinized microtainer tubes (Becton Dickinson) for differential white blood cell counts. The remainder of the exudate was centrifuged and an aliquot of the supernatants was dispensed to labeled clear Eppendorf tubes and stored at -80° C. The rats were exsanguinated into pre-chilled serum separator tubes, processed to serum, and 0.5 mL aliquot was stored at -80° C. in labeled Eppendorf tubes. […] [table]

The test system is the same in assay [2]. As to the kind of experiment: Rat air pouch model, Example 5 (Compound 2 in combination with colchicine). The format is in vivo. The method, then: Sodium hydroxide (40 g, Fisher Scientific) was dissolved in de-ionized water (100 mL, dH2O) to provide a 10N solution. Uric acid (16 g, Sigma) was added to de-ionized water (3400 mL) containing sodium hydroxide solution (11.8 mL, 10N) and heated to 60° C. with constant stirring. […] The resulting clear solution was cooled to 4-8° C., resulting in the formation of crystals, which were isolated by filtration, washed three times with de-ionized wa[…]) and dried at 37° C. The dried mono sodium urate crystals were sifted into an air-tight container for storage. […] Methylcellulose (0.4 g, Sigma) was dissolved in de-ionized water (100 mL) to provide a 0.4% solution used as vehicle. […] Test compounds were suspended in vehicle to provide the desired concentrations, and diluted accordingly. […] Male Sprague-Dawley rats (Charles River Laboratories, 160-180 g) were received, individually examined and housed in cages of five rats each. The animals were in apparent good health with no clinical signs of disease or distress. The rats were placed in quarantine with daily inspections, ear notched for identification purposes and shaved at the nape of the neck. The rats were anesthetized (isoflurane), and the nape of the neck was cleansed with 70% isopropanol (Butler Animal Health Supply) followed by povidone-iodine solution (Ricca Chemical Co.). Sterile air (30 mL, 0.2 μm, Millipore) was injected subcutaneously using a 23 G×11⁄2 inch needle fixed to a 30 mL syringe. The rats were returned to routine housing with no adverse reactions observed. The rats were anesthetized (isoflurane), and the nape of the neck was cleansed with 70% isopropanol (Butler Animal Health Supply) followed by povidone-iodine solution (Ricca Chemical Co.). Sterile air (15 mL, 0.11 μm, Millipore) was injected subcutaneously using a 23 G×11⁄2 inch needle fixed to a 20 mL syringe. The rats were returned to routine housing with no adverse reactions observed. The rats were weighed and sorted into treatment groups based on average body weight. As appropriate, the rats were dosed orally with test compound or vehicle (saline alone). […] Thirty minutes after SC injection or two hours after PO dosing, MSU (15 mL) was injected into the air pouch using an 18 G×2 inch needle fitted to a 20 mL syringe. Control group was injected with 15 mL sterile saline (vehicle). The injection sites were closed (collodion, Macron) and the rats returned to their cages with no adverse effects observed. Four hours after MSU/saline injection, the rats were anesthetized and heparinized saline (5 mL, 10 U/mL) was injected into the air pouch. […] An aliquot of the exudate was transferred to green Eppendorf tubes for total white blood cell (WBC) measurement. After allowing the MSU crystals to settle out for ten minutes, an aliquot of the exudate was transferred to heparinized microtainer tubes (Becton Dickinson) for differential white blood cell counts. The remainder of the exudate was centrifuged and an aliquot of the supernatants was dispensed to labeled clear Eppendorf tubes and stored at -80° C. The rats were exsanguinated into pre-chilled serum separator tubes, processed to serum, and 0.5 mL aliquot was stored at -80° C. in labeled Eppendorf tubes. […] 90 rats were used, divided into 9 groups of 10 animals, as follows: [table]

The mark [3] stands for this setting: 0.3 umol/kg PO + Colchicine 0.001 mpk SC, Group 6.
[4] abbreviates: 0.3 umol/kg PO + Colchicine 0.1 mpk SC, Group 8.
The mark [5] stands for this setting: 3.0 umol/kg PO + Colchicine 0.001 mpk SC, Group 7.
The mark [6] stands for this setting: 3.0 umol/kg PO + Colchicine 0.1 mpk SC, Group 9.
The mark [7] stands for this setting: 10.0 umol/kg PO + Colchicine 0.3 mpk SC, Group 10.

On to `COc1cc2c(c(OC)c1OC)-c1ccc(OC)c(=O)cc1[C@@H](NC(C)=O)CC2` [Colchicine, COLCHICINE, reference compound], for which the “Avg Exudate Vol” value amounted to 11.88 mL in assay [1] (0.3 mpk SC, Group 3); 7.62 mL in assay [1] (0.5 mpk SC, Group 4); 6.8 mL in assay [1] (1.0 mpk SC, Group 5); 9.7 mL in assay [2] (0.1 mpk (PO), Group 3). Also, the “Avg Total WBC” value in assay [1] (0.3 mpk SC, Group 3) is 170 ×10^6; in assay [1] (0.5 mpk SC, Group 4) it was 96.3 ×10^6; in assay [1] (1.0 mpk SC, Group 5) it was 41.5 ×10^6; in assay [2] (0.1 mpk (PO), Group 3), 221 ×10^6. In addition, the Neutrophils is 121.8 ×10^6 in assay [1] (0.3 mpk SC, Group 3); 64.6 ×10^6 in assay [1] (0.5 mpk SC, Group 4); 7.6 ×10^6 in assay [1] (1.0 mpk SC, Group 5); 163 ×10^6 in assay [2] (0.1 mpk (PO), Group 3).

Regarding `CC[C@@H](Nc1c(Nc2cccc(C(=O)N(C)C)c2O)c(=O)c1=O)c1ccc(C)o1` [Compound 2, (R)-2-hydroxy-N,N-dimethyl-3-((2-((1-(5-methylfuran-2-yl)propyl)amino)-3,4-dioxocyclobut-1-en-1-yl)amino)benzamide], the “Avg Exudate Vol” value came to 9.6 mL in assay [2] (setting [3]); 7.9 mL in assay [2] (setting [4]); 9.8 mL in assay [2] (0.3 umol/kg PO, Group 4); 8 mL in assay [2] (setting [5]); 7.5 mL in assay [2] (setting [6]); 7.0 mL in assay [2] (3.0 umol/kg PO, Group 5). In addition, the “Avg Total WBC” value was 337 ×10^6 in assay [2] (setting [3]); 153 ×10^6 in assay [2] (setting [4]); 365 ×10^6 in assay [2] (0.3 umol/kg PO, Group 4); 88 ×10^6 in assay [2] (setting [5]); 76.8 ×10^6 in assay [2] (setting [6]); 78.6 ×10^6 in assay [2] (3.0 umol/kg PO, Group 5). Also, the Neutrophils is recorded as 246 ×10^6 in assay [2] (setting [3]); 123 ×10^6 in assay [2] (setting [4]); 268 ×10^6 in assay [2] (0.3 umol/kg PO, Group 4); 26.7 ×10^6 in assay [2] (setting [5]); 27.2 ×10^6 in assay [2] (setting [6]); 16 ×10^6 in assay [2] (3.0 umol/kg PO, Group 5).

Consider `C[C@@H](Oc1cc(NS(=O)(=O)N2CCC2)nc(SCc2cccc(F)c2F)n1)[C@@H](O)CO` [Compound 3, N-(2-((2,3-difluorobenzyl)thio)-6-(((2R,3S)-3,4-dihydroxybutan-2-yl)oxy)pyrimidin-4-yl)azetidine-1-sulfonamide], for which the “Avg Exudate Vol” value came to 9.46 mL in assay [1] (setting [7]); 10.93 mL in assay [1] (10.0 umol/kg PO, Group 6); 8.42 mL in assay [1] (30.0 umol/kg PO, Group 7); 6.56 mL in assay [1] (100 umol/kg PO, Group 8); 5.7 mL in assay [1] (300 umol/kg PO, Group 9). Besides, the “Avg Total WBC” value in assay [1] (setting [7]) is on record as 69.1 ×10^6; in assay [1] (10.0 umol/kg PO, Group 6), 118 ×10^6; in assay [1] (30.0 umol/kg PO, Group 7), 70.5 ×10^6; in assay [1] (100 umol/kg PO, Group 8) it was 56.1 ×10^6; in assay [1] (300 umol/kg PO, Group 9) it was 24.7 ×10^6. In addition, the Neutrophils in assay [1] (setting [7]) was 53.1 ×10^6; in assay [1] (10.0 umol/kg PO, Group 6) it was 83.3 ×10^6; in assay [1] (30.0 umol/kg PO, Group 7), 40.3 ×10^6; in assay [1] (100 umol/kg PO, Group 8), 25.2 ×10^6; in assay [1] (300 umol/kg PO, Group 9) it was 5.3 ×10^6.

The values above are taken from US10772886B2, “CXCR-2 inhibitors for treating crystal arthropathy disorders” (ARDEA BIOSCIENCES, INC., priority 2016, dated 2020).
